The text below walks through data of US9828379B2 (priority 2013, dated 2017).

For assay [1], the target named is T1, ABHD6 (Mus musculus, UniProt Q8R2Y0).
T1 sequence (Q8R2Y0 1-336): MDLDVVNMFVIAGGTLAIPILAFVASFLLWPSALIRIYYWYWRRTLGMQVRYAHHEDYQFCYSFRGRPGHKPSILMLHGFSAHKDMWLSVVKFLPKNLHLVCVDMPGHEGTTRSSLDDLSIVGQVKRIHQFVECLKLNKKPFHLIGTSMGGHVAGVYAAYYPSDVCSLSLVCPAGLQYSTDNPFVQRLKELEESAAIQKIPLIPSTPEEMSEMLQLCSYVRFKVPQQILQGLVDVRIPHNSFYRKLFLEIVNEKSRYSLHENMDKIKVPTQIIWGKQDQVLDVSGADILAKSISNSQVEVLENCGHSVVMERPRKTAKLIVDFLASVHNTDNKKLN
The assay can be described thus: In vitro competitive activity-based protein profiling (Table 2, % inhibition at 1 μM). The class given is biochemical. Conditions: read-out: % Inhibition at 1 μM ABHD6.

Assay [2] concerns the target T2, FAAH (Mus musculus, UniProt O08914).
T2 sequence (O08914 1-579): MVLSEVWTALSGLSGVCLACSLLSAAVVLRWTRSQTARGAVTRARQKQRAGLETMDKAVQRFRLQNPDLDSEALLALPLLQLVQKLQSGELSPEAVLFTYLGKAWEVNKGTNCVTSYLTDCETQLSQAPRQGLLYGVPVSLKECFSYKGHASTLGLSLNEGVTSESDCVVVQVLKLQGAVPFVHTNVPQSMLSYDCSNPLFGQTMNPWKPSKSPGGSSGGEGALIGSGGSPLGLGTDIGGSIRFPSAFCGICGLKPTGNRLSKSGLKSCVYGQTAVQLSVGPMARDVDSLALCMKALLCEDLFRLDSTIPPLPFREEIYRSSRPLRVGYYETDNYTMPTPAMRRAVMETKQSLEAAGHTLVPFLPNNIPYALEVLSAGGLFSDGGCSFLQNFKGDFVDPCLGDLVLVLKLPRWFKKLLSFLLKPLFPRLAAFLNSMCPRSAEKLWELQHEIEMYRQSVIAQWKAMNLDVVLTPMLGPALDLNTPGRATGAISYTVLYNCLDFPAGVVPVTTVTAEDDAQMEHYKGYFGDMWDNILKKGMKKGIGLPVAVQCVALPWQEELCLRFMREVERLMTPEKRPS
The description is as above. The settings on record: read-out: % Inhibition at 1 μM FAAH. The assay is classed as biochemical.

Assay [3] concerns the target T1, ABHD6. Kind of assay: biochemical. Conditions: in vitro competitive ABPP.
Assay [4] deals with T3, MAGL (Mus musculus, UniProt O35678).
T3 sequence (O35678 1-303): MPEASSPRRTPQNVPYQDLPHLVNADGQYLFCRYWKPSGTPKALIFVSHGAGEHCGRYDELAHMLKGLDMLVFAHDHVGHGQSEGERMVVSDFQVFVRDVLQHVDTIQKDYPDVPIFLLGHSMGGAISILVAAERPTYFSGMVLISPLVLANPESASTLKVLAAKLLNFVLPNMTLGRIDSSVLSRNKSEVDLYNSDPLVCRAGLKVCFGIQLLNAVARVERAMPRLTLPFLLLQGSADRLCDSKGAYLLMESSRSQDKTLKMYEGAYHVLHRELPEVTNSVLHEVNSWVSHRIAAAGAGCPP
Kind of assay: biochemical. Conditions: mouse; in vitro competitive ABPP; read-out: Mouse (IC50 value, nM) MAGL.

Assay [5] addresses T3, MAGL. Kind of assay: In vitro competitive activity-based protein profiling (Table 2, % inhibition at 1 μM). The assay is classed as biochemical. Conditions: read-out: % Inhibition at 1 μM MAGL. The protocol:
After 30 min, FP—Rh (1.0 μL, 50 μM in DMSO) was added and the mixture was incubated for another 30 min at 37° C. Reactions were quenched with SDS loading buffer (50 μL-4×) and run on SDS-PAGE.
Cell lysates were diluted with mock proteomes for use in competitive ABPP experiments.

The target in assay [6] is T2, FAAH. The assay can be described thus: biochemical. Conditions: in vitro competitive ABPP.

As usually defined, the inhibition is how much of the control response was suppressed. For orientation: IC50 means the concentration that gives 50% inhibition.

With `CCN1CCN(c2cccc(CN3CC4CN(C(=O)OC(C(F)(F)F)C(F)(F)F)CC4C3)c2C)CC1` (stereo not drawn) [Example 155, 1,1,1,3,3,3-hexafluoropropan-2-yl 5-[[3-(4-ethylpiperazin-1-yl)-2-methylphenyl]methyl]-octahydropyrrolo[3,4-c]pyrrole-2-carboxylate], the figures for the inhibition at 1 µM in assay [1], in assay [2] and in assay [5] were 25 to 75%, 25 to 75% and above 75%, respectively. Further, the IC50 is 1000 to 10000 nM in assay [3], 100 to 1000 nM in assay [4] and 1000 to 10000 nM in assay [6].
Turning to `O=C(OC(C(F)(F)F)C(F)(F)F)N1CC2CN(Cc3cc(CN4CCCCC4)cc(OC(F)(F)F)c3)CC2C1` (stereo not drawn) [Example 184, 1,1,1,3,3,3-hexafluoropropan-2-yl 5-(3-(piperidin-1-ylmethyl)-5-(trifluoromethoxy)benzyl)hexahydropyrrolo[3,4-c]pyrrole-2(1H)-carboxylate], the figures for the inhibition at 1 µM in assay [1], in assay [2] and in assay [5] were below 25%, below 25% and above 75%, respectively. Further, the IC50 in assay [3] was in the range of 1000 to 10000 nM; in assay [4] it was 100 to 1000 nM; in assay [6], 1000 to 10000 nM.
On to `O=C(ON1C(=O)CCC1=O)N1CC2CN(Cc3cccc(Cl)c3N3CCC(F)CC3)CC2C1` (stereo not drawn) [Example 160, 2,5-dioxopyrrolidin-1-yl 5-[[3-chloro-2-(4-fluoropiperidin-1-yl)phenyl]methyl]-octahydropyrrolo[3,4-c]pyrrole-2-carboxylate], for which the inhibition at 1 µM in assay [1] is 25 to 75%; in assay [2], 25 to 75%; in assay [5], above 75%. In addition, the results for the IC50 in assay [3], in assay [4] and in assay [6] were 1000 to 10000 nM, 100 to 1000 nM and 1000 to 10000 nM, respectively.
`CC(=O)N1CCN(c2cc(F)ccc2CN2CC3CN(C(=O)OC(C(F)(F)F)C(F)(F)F)CC3C2)CC1` (stereo not drawn) [Example 17, 1,1,1,3,3,3-Hexafluoropropan-2-yl 5-[[2-(4-acetylpiperazin-1-yl)-4-fluorophenyl]methyl]-octahydropyrrolo[3,4-c]pyrrole-2-carboxylate]: the results for the inhibition at 1 µM in assay [1], in assay [2] and in assay [5] were below 25%, 25 to 75% and above 75%, respectively. Further, the IC50 was in the range of 1000 to 10000 nM in assay [3], 100 to 1000 nM in assay [4] and 1000 to 10000 nM in assay [6].
With `Cc1c(CN2CC3CN(C(=O)OC(C(F)(F)F)C(F)(F)F)CC3C2)cccc1N1CCN(S(C)(=O)=O)CC1` (stereo not drawn) [Example 150, 1,1,1,3,3,3-hexafluoropropan-2-yl 5-[[3-(4-methanesulfonylpiperazin-1-yl)-2-methylphenyl]methyl]-octahydropyrrolo[3,4-c]pyrrole-2-carboxylate], the inhibition at 1 µM in assay [1] is below 25%; in assay [2], 25 to 75%; in assay [5], above 75%. Also, the figures for the half-inhibitory concentration (IC50) in assay [3], in assay [4] and in assay [6] were 1000 to 10000 nM, below 100 nM and 1000 to 10000 nM, respectively.
For the molecule `CC(C)c1ccc(CN2CC3CN(C(=O)OC(C(F)(F)F)C(F)(F)F)CC3C2)c(N2CCOCC2)c1` (stereo not drawn) [Example 22, 1,1,1,3,3,3-Hexafluoropropan-2-yl 5-[[2-(morpholin-4-yl)-4-(propan-2-yl)phenyl]methyl]-octahydropyrrolo[3,4-c]pyrrole-2-carboxylate], the inhibition at 1 µM in assay [1] is below 25%; in assay [2] it was below 25%; in assay [5], above 75%. Besides, the IC50 was 1000 to 10000 nM in assay [3], 100 to 1000 nM in assay [4] and 1000 to 10000 nM in assay [6].
As to `Cc1cccc(CN2CC3CN(C(=O)OC(C(F)(F)F)C(F)(F)F)CC3C2)c1N1CCCCC1` (stereo not drawn) [Example 30, 1,1,1,3,3,3-Hexafluoropropan-2-yl 5-[[3-methyl-2-(piperidin-1-yl)phenyl]methyl]-octahydropyrrolo[3,4-c]pyrrole-2-carboxylate], the inhibition at 1 µM is below 25% in assay [1], below 25% in assay [2] and above 75% in assay [5]. Besides, the IC50 was 1000 to 10000 nM in assay [3], 100 to 1000 nM in assay [4] and above 10000 nM in assay [6].
